Molecules are shown by their SMILES. Structures can show the parent of a compound that is named as a salt.

This note sets out measurements from ChEMBL document CHEMBL1147930, “Selective inhibition of the interaction of C1q with immunoglobulins and the classical pathway of complement activation by steroids and triterpenoids sulfates” (Bioorg Med Chem, 2007).

The nature of series [1]: Inhibition of classical pathway of complement activation in sheep erythrocytes in presence of guinea-pig serum. The class given is functional, cell-based, Ovis aries. As to conditions: erythrocyte.
A short description of series [2]: Inhibition of classical pathway of complement activation in sheep erythrocytes in presence of human serum. The class given is functional, cell-based, Ovis aries. The conditions noted are these: erythrocyte.
Series [3] in a line: Inhibition of C1q immunoglobulin interaction by hemolytic method. More on the design: species or system Homo sapiens.
Series [4] is described as follows: Inhibition of C1q immunoglobulin interaction by ELISA. More on the design: species or system Homo sapiens. A general note: In an ELISA, binding on a coated surface is turned into a signal by an enzyme label.
Series [5] in a line: Inhibition of alternative pathway of complement activation in rabbit erythrocytes in presence of human serum. Type of series: functional, cell-based, Oryctolagus cuniculus. As to conditions: erythrocyte.
Series [6] can be described thus: Toxicity in sheep erythrocytes assessed as intrinsic hemolytic activity. The class given is cell-based, Ovis aries, Erythrocyte. As to conditions: read-out: ED50 (the source's name).

As for `C=C(C)[C@@H]1CC[C@]2(C(=O)O)CC[C@]3(C)[C@H](CC[C@@H]4[C@@]5(C)CC[C@H](OS(=O)(=O)O)C(C)(C)[C@@H]5CC[C@]43C)[C@@H]12` [BETULINIC ACID SULFATE], the values for the IC50 in series [1], in series [2] and in series [5] were 9.9 µM, 53.8 µM and 640 µM, respectively. The Ki in series [3] worked out at 14.6 µM; in series [4], 57.3 µM. Also, in series [6], the HC50 was > 900 µM.
Turning to `CC1(C)CC[C@]2(C(=O)O)CC[C@]3(C)C(=CCC4[C@@]5(C)CC[C@H](OS(=O)(=O)O)C(C)(C)[C@@H]5CC[C@]43C)[C@@H]2C1` (some centres not stated) [OLEANOLIC ACID SULFATE], the HC50 in series [6] worked out at 15 µM.
Take `C[C@H]1[C@H](C)CC[C@]2(C(=O)O)CC[C@]3(C)C(=CC[C@@H]4[C@@]5(C)CC[C@H](OS(=O)(=O)O)C(C)(C)[C@@H]5CC[C@]43C)[C@H]12` [URSOLIC ACID SULFATE]: the IC50 in series [1] came out at 25.2 µM. Besides, in series [6], the HC50 was > 900 µM.
The matching figures for `CC1(C)[C@@H](OS(=O)(=O)O)CC[C@]2(C)[C@H]3CC[C@@H]4[C@H]5[C@H](C6(C)CC6(Cl)Cl)CC[C@]5(COS(=O)(=O)O)CC[C@@]4(C)[C@]3(C)CC[C@@H]12` (some centres not stated): 6.8 µM and 85 µM.
The matching figures for `C[C@H](CCC(=O)O)[C@H]1CC[C@H]2[C@@H]3CC[C@@H]4C[C@H](OS(=O)(=O)O)CC[C@]4(C)[C@H]3C[C@H](OS(=O)(=O)O)[C@]12C` [DEOXYCHOLIC ACID DISULFATE]: 186 µM and > 1600 µM.
For `C[C@H](CCC(=O)O)[C@H]1CC[C@H]2[C@@H]3CC=C4C[C@@H](OS(=O)(=O)O)CC[C@]4(C)[C@H]3CC[C@]12C`, the IC50 in series [1] is 23.7 µM. For the same compound, in series [6], the HC50 was > 400 µM.
The matching figures for `C=C(C)[C@@H]1CC[C@]2(COP(=O)(O)O)CC[C@]3(C)[C@H](CC[C@@H]4[C@@]5(C)CC[C@H](OP(=O)(O)O)C(C)(C)[C@@H]5CC[C@]43C)[C@@H]12` [BETULIN DIPHOSPHATE]: 42.6 µM and > 800 µM.
On the same counts, the results for `C[C@H](CCC(=O)O)[C@H]1CC[C@H]2[C@@H]3[C@H](OS(=O)(=O)O)C[C@@H]4C[C@H](OS(=O)(=O)O)CC[C@]4(C)[C@H]3C[C@H](OS(=O)(=O)O)[C@]12C` [CHOLIC ACID TRISULFATE] are 101 µM and > 1400 µM.
`C[C@]12CC[C@H]3[C@@H](CC=C4C[C@@H](OS(=O)(=O)O)CC[C@@]43C)[C@@H]1CC[C@@H]2C(=O)O`: in series [1], the concentration for half-maximal inhibition (IC50) was 410 µM. Also, in series [6], the HC50 is > 1600 µM.
Regarding `C=C(C)[C@@H]1CC[C@]2(COS(=O)(=O)O)CC[C@]3(C)[C@H](CC[C@@H]4[C@@]5(C)CC[C@H](OS(=O)(=O)O)C(C)(C)[C@@H]5CC[C@]43C)[C@@H]12` [BETULIN DISULFATE], the IC50 in series [1] amounted to 6.9 µM; in series [2] it was 14.6 µM; in series [5], 414 µM. In addition, the inhibition constant (Ki) in series [3] came out at 8.6 µM; in series [4], 42.2 µM. In addition, the HC50 in series [6] was found to be 850 µM.

The term IC50 denotes the concentration that inhibits the measured activity by half. As a reminder, the Ki is a measure of affinity in units of concentration, obtained from inhibition or displacement. Higher therefore signals weaker binding.
